# System: 521955-158-R2-J5-PDC complex spheroid viability
# Test: Anticancer human tumor 521955-158-R2-J5-PDC patient-derived pancreatic carcinoma cell line growth inhibition [GQUAD]
# Conditions: for IC50: curve of first compound; for viability, T/C: stronger effect = lower value
# In short: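 Viability of tumor cells grown as complex spheroids with endothelial and stromal cells, exposed to drug combinations. Top concentration at or near clinical Cmax (else 10 microM), diluted in half-log increments.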
# [1] = second compound 0.0316 µM, first compound 0.0316 µM
# [2] = second compound 0.0316 µM, first compound 0.1 µM
# [3] = second compound 0.0316 µM, first compound 0.316 µM
# [4] = second compound 0.0316 µM, first compound 1 µM
# [5] = second compound 0.0316 µM, first compound 3.16 µM
# [6] = second compound 0.0316 µM, first compound 10 µM
# [7] = second compound 0.1 µM, first compound 0.0316 µM
# [8] = second compound 0.1 µM, first compound 0.1 µM
# [9] = second compound 0.1 µM, first compound 0.316 µM
# [10] = second compound 0.1 µM, first compound 1 µM
# [11] = second compound 0.1 µM, first compound 3.16 µM
# [12] = second compound 0.1 µM, first compound 10 µM
# [13] = second compound 0.316 µM, first compound 0.0316 µM
# [14] = second compound 0.316 µM, first compound 0.1 µM
# [15] = second compound 0.316 µM, first compound 0.316 µM
# [16] = second compound 0.316 µM, first compound 1 µM
# [17] = second compound 0.316 µM, first compound 3.16 µM
# [18] = second compound 0.316 µM, first compound 10 µM
# [19] = second compound 1 µM, first compound 0.0316 µM
# [20] = second compound 1 µM, first compound 0.1 µM
# [21] = second compound 1 µM, first compound 0.316 µM
# [22] = second compound 1 µM, first compound 1 µM
# [23] = second compound 1 µM, first compound 3.16 µM
# [24] = second compound 1 µM, first compound 10 µM
# [25] = second compound 3.16 µM, first compound 0.0316 µM
# [26] = second compound 3.16 µM, first compound 0.1 µM
# [27] = second compound 3.16 µM, first compound 0.316 µM
# [28] = second compound 3.16 µM, first compound 1 µM
# [29] = second compound 3.16 µM, first compound 3.16 µM
# [30] = second compound 3.16 µM, first compound 10 µM
# [31] = second compound 10 µM, first compound 0.0316 µM
# [32] = second compound 10 µM, first compound 0.1 µM
# [33] = second compound 10 µM, first compound 0.316 µM
# [34] = second compound 10 µM, first compound 1 µM
# [35] = second compound 10 µM, first compound 3.16 µM
# [36] = second compound 10 µM, first compound 10 µM
# [37] = second compound 0.0316 µM, first compound 0.000999 µM
# [38] = second compound 0.0316 µM, first compound 0.00316 µM
# [39] = second compound 0.0316 µM, first compound 0.00999 µM
# [40] = second compound 0.0316 µM, first compound 0.0999 µM
# [41] = second compound 0.1 µM, first compound 0.000999 µM
# [42] = second compound 0.1 µM, first compound 0.00316 µM
# [43] = second compound 0.1 µM, first compound 0.00999 µM
# [44] = second compound 0.1 µM, first compound 0.0999 µM
# [45] = second compound 0.316 µM, first compound 0.000999 µM
# [46] = second compound 0.316 µM, first compound 0.00316 µM
# [47] = second compound 0.316 µM, first compound 0.00999 µM
# [48] = second compound 0.316 µM, first compound 0.0999 µM
# [49] = second compound 1 µM, first compound 0.000999 µM
# [50] = second compound 1 µM, first compound 0.00316 µM
# [51] = second compound 1 µM, first compound 0.00999 µM
# [52] = second compound 1 µM, first compound 0.0999 µM
# [53] = second compound 3.16 µM, first compound 0.000999 µM
# [54] = second compound 3.16 µM, first compound 0.00316 µM
# [55] = second compound 3.16 µM, first compound 0.00999 µM
# [56] = second compound 3.16 µM, first compound 0.0999 µM
# [57] = second compound 10 µM, first compound 0.000999 µM
# [58] = second compound 10 µM, first compound 0.00316 µM
# [59] = second compound 10 µM, first compound 0.00999 µM
# [60] = second compound 10 µM, first compound 0.0999 µM
# 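Note: spheroids exposed to agents for one week before reading.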
# 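Throughout, for viability, T/C: 100% = DMSO vehicle control viability.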
smiles,measurement,setting,value
CC1COCCN1c1cc(C2(S(C)(=N)=O)CC2)nc(-c2ccnc3[nH]ccc23)n1 (stereo not drawn) + Cc1cnc(CNC(=O)c2c(=O)c3ccc(N4CCCN(C)CC4)nc3n3c2sc2ccccc23)cn1,IC50,second compound 0.0316 µM,614 nM
same,IC50,second compound 0.1 µM,543 nM
same,IC50,second compound 0.316 µM,< 31.6 nM
same,IC50,second compound 1 µM,< 31.6 nM
same,IC50,second compound 3.16 µM,< 31.6 nM
same,IC50,second compound 10 µM,< 31.6 nM
same,"viability, T/C",[1],80.3%
same,"viability, T/C",[2],86.1%
same,"viability, T/C",[3],82.4%
same,"viability, T/C",[4],26.1%
same,"viability, T/C",[5],9.1%
same,"viability, T/C",[6],10.6%
same,"viability, T/C",[7],59.4%
same,"viability, T/C",[8],60.2%
same,"viability, T/C",[9],76.2%
same,"viability, T/C",[10],32.7%
same,"viability, T/C",[11],12.3%
same,"viability, T/C",[12],10.4%
same,"viability, T/C",[13],42.2%
same,"viability, T/C",[14],46.2%
same,"viability, T/C",[15],53.2%
same,"viability, T/C",[16],32.8%
same,"viability, T/C",[17],13.7%
same,"viability, T/C",[18],11.3%
same,"viability, T/C",[19],31%
same,"viability, T/C",[20],24.5%
same,"viability, T/C",[21],23.4%
same,"viability, T/C",[22],23.7%
same,"viability, T/C",[23],15.4%
same,"viability, T/C",[24],11.1%
same,"viability, T/C",[25],21.3%
same,"viability, T/C",[26],23.6%
same,"viability, T/C",[27],21.5%
same,"viability, T/C",[28],19.3%
same,"viability, T/C",[29],13.6%
same,"viability, T/C",[30],9.15%
same,"viability, T/C",[31],16.2%
same,"viability, T/C",[32],19.1%
same,"viability, T/C",[33],20.9%
same,"viability, T/C",[34],22.8%
same,"viability, T/C",[35],14.3%
same,"viability, T/C",[36],7.66%
Nc1ccn(C2OC(CO)C(O)C2(F)F)c(=O)n1 (stereo not drawn) + Cc1cnc(CNC(=O)c2c(=O)c3ccc(N4CCCN(C)CC4)nc3n3c2sc2ccccc23)cn1,IC50,second compound 0.0316 µM,159 nM
same,IC50,second compound 0.1 µM,85.7 nM
same,IC50,second compound 0.316 µM,< 31.6 nM
same,IC50,second compound 1 µM,< 31.6 nM
same,IC50,second compound 3.16 µM,< 31.6 nM
same,IC50,second compound 10 µM,< 31.6 nM
same,"viability, T/C",[1],67.4%
same,"viability, T/C",[2],63.6%
same,"viability, T/C",[3],30.6%
same,"viability, T/C",[4],12.9%
same,"viability, T/C",[5],8.38%
same,"viability, T/C",[6],8.43%
same,"viability, T/C",[7],57.4%
same,"viability, T/C",[8],51.2%
same,"viability, T/C",[9],29%
same,"viability, T/C",[10],20.9%
same,"viability, T/C",[11],7.8%
same,"viability, T/C",[12],7.55%
same,"viability, T/C",[13],36%
same,"viability, T/C",[14],27.7%
same,"viability, T/C",[15],20.9%
same,"viability, T/C",[16],12.8%
same,"viability, T/C",[17],9.07%
same,"viability, T/C",[18],7.49%
same,"viability, T/C",[19],20.2%
same,"viability, T/C",[20],19.9%
same,"viability, T/C",[21],15.2%
same,"viability, T/C",[22],9.52%
same,"viability, T/C",[23],9.75%
same,"viability, T/C",[24],8.51%
same,"viability, T/C",[25],16%
same,"viability, T/C",[26],17.8%
same,"viability, T/C",[27],15.9%
same,"viability, T/C",[28],8.29%
same,"viability, T/C",[29],4.92%
same,"viability, T/C",[30],2.37%
same,"viability, T/C",[31],17%
same,"viability, T/C",[32],15.7%
same,"viability, T/C",[33],15.1%
same,"viability, T/C",[34],6.25%
same,"viability, T/C",[35],4.12%
same,"viability, T/C",[36],5.49%
Cc1[nH]c2ccccc2c1CCNCc1ccc(/C=C/C(=O)NO)cc1 + Cc1[nH]c2ccc(F)cc2c1-c1nc2c3cccnc3c3ncccc3c2[nH]1,IC50,second compound 0.0316 µM,112 nM
same,IC50,second compound 0.1 µM,156 nM
same,IC50,second compound 0.316 µM,137 nM
same,IC50,second compound 1 µM,224 nM
same,IC50,second compound 3.16 µM,207 nM
same,IC50,second compound 10 µM,157 nM
same,"viability, T/C",[37],116%
same,"viability, T/C",[38],120%
same,"viability, T/C",[39],132%
same,"viability, T/C",[1],102%
same,"viability, T/C",[40],54.1%
same,"viability, T/C",[3],23.1%
same,"viability, T/C",[41],106%
same,"viability, T/C",[42],109%
same,"viability, T/C",[43],122%
same,"viability, T/C",[7],116%
same,"viability, T/C",[44],64.5%
same,"viability, T/C",[9],27.3%
same,"viability, T/C",[45],96.4%
same,"viability, T/C",[46],108%
same,"viability, T/C",[47],117%
same,"viability, T/C",[13],114%
same,"viability, T/C",[48],58.3%
same,"viability, T/C",[15],27.8%
same,"viability, T/C",[49],105%
same,"viability, T/C",[50],123%
same,"viability, T/C",[51],131%
same,"viability, T/C",[19],106%
same,"viability, T/C",[52],102%
same,"viability, T/C",[21],27.9%
same,"viability, T/C",[53],106%
same,"viability, T/C",[54],110%
same,"viability, T/C",[55],118%
same,"viability, T/C",[25],109%
same,"viability, T/C",[56],92%
same,"viability, T/C",[27],25.6%
same,"viability, T/C",[57],92.4%
same,"viability, T/C",[58],105%
same,"viability, T/C",[59],110%
same,"viability, T/C",[31],115%
same,"viability, T/C",[60],66.3%
same,"viability, T/C",[33],24.7%
Cc1[nH]c2ccccc2c1CCNCc1ccc(/C=C/C(=O)NO)cc1 + Cc1cnc(CNC(=O)c2c(=O)c3ccc(N4CCCN(C)CC4)nc3n3c2sc2ccccc23)cn1,IC50,second compound 0.0316 µM,71.3 nM
same,IC50,second compound 0.1 µM,35.1 nM
same,IC50,second compound 0.316 µM,< 0.999 nM
same,IC50,second compound 1 µM,< 0.999 nM
same,IC50,second compound 3.16 µM,< 0.999 nM
same,IC50,second compound 10 µM,< 0.999 nM
same,"viability, T/C",[37],76.2%
same,"viability, T/C",[38],66.1%
same,"viability, T/C",[39],92.3%
same,"viability, T/C",[1],75.6%
same,"viability, T/C",[40],39.2%
same,"viability, T/C",[3],5.94%
same,"viability, T/C",[41],64.7%
same,"viability, T/C",[42],57.7%
same,"viability, T/C",[43],57.1%
same,"viability, T/C",[7],54%
same,"viability, T/C",[44],33.2%
same,"viability, T/C",[9],2.12%
same,"viability, T/C",[45],26.8%
same,"viability, T/C",[46],31.2%
same,"viability, T/C",[47],34%
same,"viability, T/C",[13],37.1%
same,"viability, T/C",[48],26.6%
same,"viability, T/C",[15],1.88%
same,"viability, T/C",[49],16.8%
same,"viability, T/C",[50],21.2%
same,"viability, T/C",[51],18.5%
same,"viability, T/C",[19],20.1%
same,"viability, T/C",[52],18.6%
same,"viability, T/C",[21],0.1%
same,"viability, T/C",[53],12.1%
same,"viability, T/C",[54],14.4%
same,"viability, T/C",[55],14.7%
same,"viability, T/C",[25],13.9%
same,"viability, T/C",[56],6.38%
same,"viability, T/C",[27],0.11%
same,"viability, T/C",[57],9.65%
same,"viability, T/C",[58],11.8%
same,"viability, T/C",[59],14.8%
same,"viability, T/C",[31],13.8%
same,"viability, T/C",[60],5.03%
same,"viability, T/C",[33],0.18%
